Results: patent US4254056A, “2-Aminomethyl phenol derivative and process for preparing thereof” (Ono Pharmaceutical Co., Ltd., priority 1977, dated 1981)

Tests used:
[1] = Diuretic effect on rats: urinary volume during a 5 hour period after oral administration; type: in vivo, Wister male rats; settings: 3 mg/kg oral; for Urine discharge (in words): Wister male rats; for Urinary volume relative to control: starved rats, 5 hour period after administration, control taken as 100%
Procedure: About 16 hours before oral administration with 3 mg/kg of the compounds, the rats were starved, with only water available. The urinary volume during a 5 hour period after administration was compared with that of the control groups, taking the urinary volume of the latter as 100%.

[2] = test system: Carrageenan-Induced Edema in Rat Paws; assay: Anti-inflammatory effect on carrageenan-induced edema in rat paws (oral); type: in vivo, Wister male rats; settings: for % Inhibition of Foot Edema: 1 hour before carrageenan, swelling at third hour, control taken as 100%; for Inhibition of carrageenan-induced edema (in words): oral, Wister male rats
Procedure: One hour after oral administration with these compounds, the rats were subcutaneously injected with 0.1 m of 1% carrageenan suspension on the plantar surface of the right hind foot. The swelling was measured at the third hour of carrageenan injection. Anti-inflammatory effect of the compounds was determined as percentage inhibition of the swelling, taking the swelling in the control groups as 100%.

SMILES: CN(C)Cc1cc2c(c(I)c1O)CCCC2.Cl [1-Iodo-3-(N,N-dimethylaminomethyl)-5,6,7,8-tetrahydro-2-naphthol Hydrochloride]
- Urine discharge (in words) [1]: discharged increased amounts of urine
- Urinary volume relative to control [1]: 232%

SMILES: CC1CCc2c1cc(CN)c(O)c2I.Cl (stereo not shown) [1-Methyl-4-iodo-6-aminomethyl-5-indanol hydrochloride]
- Urine discharge (in words) [1]: discharged increased amounts of urine
- Urinary volume relative to control [1]: 208%

SMILES: Cl.NCc1cc2c(c(I)c1O)CCC2 [4-Iodo-6-aminomethyl-5-indanol Hydrochloride]
- % Inhibition of Foot Edema ([2]; 10 mg/kg oral): 41.1%
- % Inhibition of Foot Edema ([2]; 30 mg/kg oral): 55.8%
- Inhibition of carrageenan-induced edema (in words) [2]: had carrageenan-induced edema in their paws inhibited
- Urine discharge (in words) [1]: discharged increased amounts of urine
- Urinary volume relative to control [1]: 138%

SMILES: CC1(C)CCCc2c1cc(CN)c(O)c2I.Cl [1-Iodo-3-aminomethyl-5,5-dimethyl-5,6,7,8-tetrahydro-2-naphthol Hydrochloride]
- % Inhibition of Foot Edema ([2]; 10 mg/kg oral): 44.1%
- % Inhibition of Foot Edema ([2]; 30 mg/kg oral): 66.3%
- Inhibition of carrageenan-induced edema (in words) [2]: had carrageenan-induced edema in their paws inhibited

SMILES: Br.NCc1cc2c(c(I)c1O)CCCC2 [1-Iodo-3-aminomethyl-5,6,7,8-tetrahydro-2-naphthol Hydrobromide]
- % Inhibition of Foot Edema ([2]; 10 mg/kg oral): 68.8%
- % Inhibition of Foot Edema ([2]; 30 mg/kg oral): 69.6%
- Inhibition of carrageenan-induced edema (in words) [2]: had carrageenan-induced edema in their paws inhibited
- Urine discharge (in words) [1]: discharged increased amounts of urine
- Urinary volume relative to control [1]: 226%

SMILES: Br.NCc1c(O)c(I)cc2c1CCCC2 [1-Aminomethyl-3-iodo-5,6,7,8-tetrahydro-2-naphthol Hydrobromide]
- % Inhibition of Foot Edema ([2]; 10 mg/kg oral): 55.6%
- % Inhibition of Foot Edema ([2]; 30 mg/kg oral): 68.8%
- Inhibition of carrageenan-induced edema (in words) [2]: had carrageenan-induced edema in their paws inhibited
- Urine discharge (in words) [1]: discharged increased amounts of urine
- Urinary volume relative to control [1]: 142%
